Laboratory results: patent US7825146B2, “Sulfonamide derivative having isoxazole ring” (Shionogi & Co., Ltd., priority 2003, dated 2010)

Columns and labels:
MMP-13 = target: T1, MMP-13 (Homo sapiens, UniProt P45452); experiment: Assay for inhibitory activities on MMPs (fluorogenic MOCAc peptide substrate): MMP-13; type: biochemical; conditions: Table 40
T1 construct: catalytic domain (^104Tyr˜^267Gly) was amplified with RT-PCR; His-tag; enterokinase digestion-site; made in house
Method: (§1) In regard to MMP-13, mRNA was prepared from carcinoma cell SW1353 derived from human cartilage stimulate by IL-1, TNF and catalytic domain (^104Tyr˜^267Gly) was amplified with RT-PCR. This was cloned in Escherichia. coli expression vector pTrc99AHE inserted with His-tag sequence and enterokinase digestion-site, induced and expressed by IPTG (Isopropyl-β-D-thiogalactopyranoside) and expressed in a insoluble fraction. Isolation of MMP-13 from an insoluble fraction was carried out by dissolving in modifier (6M urea) by a usual method and purification with metal chelate chromatography (Ni Chelateing Sepharose). And then removing modifier (6M urea) with dialyze and refolding of the enzyme spontaneously gave activated MMP-13.
(§2) The enzymatic activity on MMPs was analyzed by the method described in “C. Graham Knight, Frances Willenbrock and Gillian Murphy: A novel coumarin-labelled peptide for sensitive continuous assays of the matrix metalloproteinases: FEBS LETT., 296, (1992), 263-266”. The substrate: MOCAc-Pro-Leu-Gly-Leu-A2Pr(DNP)-Ala-Arg-NH2 was purchased from Peptide Institute, Inc., Osaka, Japan. The measurement of the inhibitory activities (IC50) was carried out by the following four methods; • (A) Reaction with substrate, enzyme (MMPs) and inhibitor • (B) Reaction with substrate and inhibitor, without enzyme • (C) Reaction with substrate and enzyme (MMPs), without inhibitor • (D) Reaction with substrate only IC50 values were calculated by using the following formula and each fluorescence values of above four methods (A to D).
(§3) The value of inhibitory activity against MMP-2, MMP-8, MMP-9, MMP-12, and MMP-13 measured by above mentioned methods are shown in Table 36, 37, 38, 39, and 40 respectively.

MMP-12 = target: T2, MMP-12 (Homo sapiens, UniProt P39900); experiment: Assay for inhibitory activities on MMPs (fluorogenic MOCAc peptide substrate): MMP-12; type: biochemical; conditions: catalytic domain 100Phe-263Gly
T2 construct: In regard to MMP-12, catalytic domain(^100Phe˜^263Gly) was amplified with RT-PCR; His-tag; enterokinase digestion-site; made in house
Method: as §1, with “MMP-12,” for “MMP-13, mRNA was prepared from carcinoma cell SW1353 derived from human cartilage stimulate by IL-1, TNF and”, “domain(^100Phe˜^263Gly)” for “domain (^104Tyr˜^267Gly)”, “RT-PCR from Human Placenta Total RNA.” for “RT-PCR.”, “MMP-12” for “MMP-13”, “dialysis” for “dialyze”, “MMP-12.” for “MMP-13.”
as §2, §3

MMP-2 = target: T3, MMP-2 (Homo sapiens, UniProt P08253); experiment: Assay for inhibitory activities on MMPs (fluorogenic MOCAc peptide substrate): MMP-2; type: biochemical; conditions: MMP-2 purchased from Calbiochem-Novabiochem
T3 construct: purchased Calbiochem-Novabiochem International, Inc
T3 sequence (P08253 110-660): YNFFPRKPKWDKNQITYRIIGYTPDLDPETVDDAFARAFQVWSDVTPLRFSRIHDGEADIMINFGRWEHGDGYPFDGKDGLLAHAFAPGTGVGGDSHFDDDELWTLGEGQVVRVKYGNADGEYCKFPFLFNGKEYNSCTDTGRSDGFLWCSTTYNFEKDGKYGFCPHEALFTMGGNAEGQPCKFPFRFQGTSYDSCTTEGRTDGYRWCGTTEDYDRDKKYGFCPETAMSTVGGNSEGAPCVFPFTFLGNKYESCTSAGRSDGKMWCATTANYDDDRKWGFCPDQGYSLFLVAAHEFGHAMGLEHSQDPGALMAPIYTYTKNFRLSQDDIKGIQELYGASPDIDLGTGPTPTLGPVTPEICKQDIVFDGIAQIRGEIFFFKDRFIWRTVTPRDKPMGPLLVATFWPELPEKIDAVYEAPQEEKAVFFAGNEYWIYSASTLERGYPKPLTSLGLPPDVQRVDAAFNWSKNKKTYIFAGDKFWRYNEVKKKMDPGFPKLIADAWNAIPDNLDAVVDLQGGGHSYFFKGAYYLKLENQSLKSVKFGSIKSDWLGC
Method: MMP-2 was purchased from Calbiochem-Novabiochem International, Inc.
as §2, §3

MMP-8 = target: T4, MMP-8 (Homo sapiens, UniProt P22894); experiment: Assay for inhibitory activities on MMPs (fluorogenic MOCAc peptide substrate): MMP-8; type: biochemical; conditions: catalytic domain 99Phe-262Gly
T4 construct: In regard to MMP-8, catalytic domain (^99Phe˜^262Gly) was amplified with PCR; His-tag; enterokinase digestion-site; made in house
Source text: In regard to MMP-8, catalytic domain (^99Phe˜^262Gly) was amplified with PCR using commercial available Human Bone Marrow cDNA. This was cloned in Escherichia. coli expression vector pTrc99AHE inserted with His-tag sequence and enterokinase digestion-site, induced and expressed by IPTG (Isdpropyl-β-D-thiogalactopyranoside) and expressed in a insoluble fraction (Thau F. Ho, M. Walid Qoronfleh, Robert C. Wahl, Trica A. Pulvino, Karen J. Vavra, Joe Falvo, Tracey M. Banks, Patricia G. Brake and Richard B. Ciccarelli: Gene expression, purification and characterization of recombinant human neutrophil collagenase. Gene 146, (1994) 297-301, Prepared by the a improved method of this material). Isolation of MMP-8 from an insoluble fraction was carried out by dissolving in modifier (6M urea) by a usual method and purification with metal chelate chromatography. And then removing modifier (6M urea) with dialysis and refolding of the enzyme spontaneously gave activated MMP-8.
as §2, §3

MMP-9 = target: T5, MMP-9 (Homo sapiens, UniProt P14780); experiment: Assay for inhibitory activities on MMPs (fluorogenic MOCAc peptide substrate): MMP-9; type: biochemical; conditions: from HT1080 cells, activated by TPCK-Trypsin
T5 construct: made in house; host or cells: endogenous secretion from human fibrosarcoma HT1080 cells (TPA-stimulated), purified from conditioned medium
Source text: MMP-9 was isolated and purified by procedures described in as follows: Yasunori Okada, Yukio Gonoji, Katsumi Naka, Katsuro Tomita, Isao Nakanishi, Kazushi Iwata, Kyoko Yamashita, and Taro Hayakawa: Matrix metalloproteinase 9 (92-kDa gelatinase/type IV collagenase) from HT1080 human fibrosarcoma cells. Purification and activation of the precursor and enzymic properties J. Biol. Chem., 1992, 267 21712-21719, in combination with others: 1) Yasunori Okada, Tatsuhisa Morodomi, Jan J, Enghild, ko Suzuki, Atsushi Yasui, Isao Nakanishi, Guy Salvesen and Hideaki Nagase: Matrix metalloproteinase 2 from human rheumatoid synovial fibroblasts. Purification and activation of the precursor and enzymic properties. Eur. J. Biochem. 1990, 194 721-730; 2) Robin V Ward, Rosalind M Hembry; John J Reynolds and Gillian Murphy: The purification of tissue inhibitor of metalloproteinase-2 from its 72 kDa progelatinase complex. Biochem. J. 1991 278 179-187. In detail, human fibrosarcoma ATCC HT1080 cell line was cultured to confluent in Dulbecco's Modified Medium (DMEM) containing 10% fetal-calf serum at 37° C. for 48 hours. Subsequently, the medium of confluent culture was changed to serum-free DMEM medium. To obtain MMP-9, Phorbol-12-myristate-13-acetate (TPA) must be added to this serum-free DMEM medium at a concentration of 50 ng/ml. The TPA treated medium was centrifuged at 3000 rpm for 15 min and the supernatant was concentrated to 450 ml by a Toyo-Roshi UP-20 apparatus with an ultrafiltration membrane. Then, proMMP-9 in this concentrated solution was purified by using columns of Gelatin-Sepharose and Concanavalin A-Sepharose. The pool containing proMMP-9 was dialyzed, concentrated (Toyo-Roshi UP-20) and applied to columns of Sephacryl S-200 and Green A matrix for the separation from TIMPs. The obtained proMMP-9 fraction was activated by TPCK-Trypsin (Final conc. 3 μg/50 μl React Mix.).
as §2, §3

T4 sequence (P22894 99-262): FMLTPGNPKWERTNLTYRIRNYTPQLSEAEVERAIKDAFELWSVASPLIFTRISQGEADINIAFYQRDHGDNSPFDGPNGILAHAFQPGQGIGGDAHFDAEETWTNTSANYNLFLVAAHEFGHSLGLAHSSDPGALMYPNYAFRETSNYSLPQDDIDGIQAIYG
T2 sequence (P39900 100-263): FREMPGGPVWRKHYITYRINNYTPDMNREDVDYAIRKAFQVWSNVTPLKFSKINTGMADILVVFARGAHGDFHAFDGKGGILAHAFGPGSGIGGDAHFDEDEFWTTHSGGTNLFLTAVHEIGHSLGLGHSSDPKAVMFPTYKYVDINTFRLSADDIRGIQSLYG
T5 sequence (P14780 107-707 limits assumed): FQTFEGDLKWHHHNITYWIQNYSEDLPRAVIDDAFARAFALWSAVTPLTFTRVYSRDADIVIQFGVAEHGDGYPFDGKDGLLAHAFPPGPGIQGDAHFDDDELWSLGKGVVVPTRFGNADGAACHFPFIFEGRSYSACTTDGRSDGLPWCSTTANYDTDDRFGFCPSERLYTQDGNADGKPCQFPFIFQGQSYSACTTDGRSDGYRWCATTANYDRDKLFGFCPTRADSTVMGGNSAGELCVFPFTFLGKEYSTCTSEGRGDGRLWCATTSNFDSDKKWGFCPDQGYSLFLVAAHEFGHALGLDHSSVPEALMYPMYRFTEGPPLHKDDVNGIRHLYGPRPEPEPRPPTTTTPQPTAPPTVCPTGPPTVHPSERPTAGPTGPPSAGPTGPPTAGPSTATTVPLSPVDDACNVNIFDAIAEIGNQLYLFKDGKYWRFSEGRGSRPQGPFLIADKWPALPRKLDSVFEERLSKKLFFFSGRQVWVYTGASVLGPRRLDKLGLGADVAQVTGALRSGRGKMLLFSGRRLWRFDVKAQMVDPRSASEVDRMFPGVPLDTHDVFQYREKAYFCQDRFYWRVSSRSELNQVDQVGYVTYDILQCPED

IC50 (MMP-13) [µM] | IC50 (MMP-12) [µM] | IC50 (MMP-2) [nM] | melting point [°C] | IC50 (MMP-8) [µM] | IC50 (MMP-9) [µM] | SMILES
 | 0.000275 |  |  |  | 0.000706 | CC(C)[C@@H](NS(=O)(=O)c1ccc(-c2cc(-c3ccc(Br)cc3)on2)cc1)C(=O)O [Example C-22]
 | 0.000245 |  |  |  | 0.000741 | CC(C)[C@@H](NS(=O)(=O)c1ccc(-c2cc(-c3ccc(Cl)c(F)c3)on2)cc1)C(=O)O [Example C-36]
0.00015 | 0.000216 | 0.0533 |  |  |  | CCCc1ccc(-c2cc(-c3ccc(S(=O)(=O)N[C@@H](C(=O)O)C(C)C)cc3)no2)cc1 [Example C-14]
 | 0.000366 |  |  |  | 0.00092 | CC(C)[C@@H](NS(=O)(=O)c1ccc(-c2cc(-c3ccc(Cl)cc3)on2)cc1)C(=O)O [Example C-20]
0.000528 |  | 0.0926 |  | 0.00178 | 0.000585 | Cc1ccc(-c2cc(-c3ccc(S(=O)(=O)N[C@H](Cc4ccccc4)C(=O)O)cc3)no2)s1 [Example C-124]
 | 0.000535 |  |  | 0.000781 | 0.000467 | CC(C)[C@@H](NS(=O)(=O)c1ccc(-c2cc(-c3ccc(Cl)s3)on2)cc1)C(=O)O [Example C-33]
0.000223 | 0.000196 |  |  |  | 0.00032 | CC(C)[C@@H](NS(=O)(=O)c1ccc(-c2cc(-c3ccc(OC(F)(F)F)cc3)on2)cc1)C(=O)O [Example C-25]
0.000136 | 0.00015 | 0.049 |  |  |  | CC(C)c1ccc(-c2cc(-c3ccc(S(=O)(=O)N[C@@H](C(=O)O)C(C)C)cc3)no2)cc1 [Example C-15]
0.000701 | 0.000368 | 0.0449 |  | 0.000567 | 0.00034 | Cc1ccc(-c2cc(-c3ccc(S(=O)(=O)N[C@@H](C(=O)O)C(C)C)cc3)no2)s1 [Example C-29]

More lines, now with the values behind:

SMILES | IC50 (MMP-13) [µM] | IC50 (MMP-12) [µM] | IC50 (MMP-2) [nM] | melting point [°C] | IC50 (MMP-8) [µM] | IC50 (MMP-9) [µM]
CSc1ccc(-c2cc(-c3ccc(S(=O)(=O)N[C@H](C)C(=O)O)cc3)no2)cc1 [Example C-4] | 0.000404 | 0.000377 | 0.0934 |  |  | 
Cc1ccc(-c2cc(-c3ccc(S(=O)(=O)N[C@H](C)C(=O)O)cc3)no2)cc1 [Example C-1] |  | 0.000707 |  | 218 to 221 |  | 
Cc1ccc(-c2cc(-c3ccc(S(=O)(=O)N[C@@H](C(=O)O)C(C)C)cc3)on2)s1 [Example A-33] |  |  | 0.0971 |  | 0.00291 | 
CSc1ccc(-c2cc(-c3ccc(S(=O)(=O)N[C@@H](C(=O)O)C(C)C)cc3)no2)cc1 [Example C-10] | 0.000282 | 0.000201 | 0.0619 |  | 0.0039 | 
CC(C)c1ccc(-c2cc(-c3ccc(S(=O)(=O)N[C@@H](C(=O)O)C(C)C)cc3)on2)cc1 [Example A-16] | 0.000328 | 0.000687 | 0.0767 |  |  | 
CCc1ccc(-c2cc(-c3ccc(S(=O)(=O)N[C@@H](C(=O)O)C(C)C)cc3)no2)cc1 [Example C-12] | 0.000266 | 0.000316 | 0.0832 |  |  | 0.000532
CC(C)[C@@H](NS(=O)(=O)c1ccc(-c2cc(-c3ccc(SC(F)(F)F)cc3)no2)cc1)C(=O)O [Example A-32] | 0.000193 | 0.000463 |  |  |  | 0.000609
CC(C)[C@@H](NS(=O)(=O)c1ccc(-c2cc(-c3ccc(OC(F)(F)F)cc3)no2)cc1)C(=O)O [Example A-18] | 0.000263 | 0.000376 | 0.0674 |  |  | 0.00052
